Experimental data taken from the NIST ThermoML archive (doi:10.1016/j.jct.2016.10.002).
± gives the expanded uncertainty stated by the source.

Key:
[1] = refractive index (Na D-line) (dimensionless); xn = mol fraction of the nth substance listed; conditions: 303.15 K, 101 kPa, Liquid, Standard Abbe refractometry
[2] = refractive index (Na D-line) (dimensionless); conditions: 303.15 K; 101.33 kPa; Liquid; Standard Abbe refractometry

| refractive index ([1]; x1 = 0.333) | Compound | other results |
| --- | --- | --- |
| 1.4853 ± 0.0007 | C[N+](C)(C)CCO.[Cl-] [choline chloride] + OCC(O)CO | – |
| 1.4691 ± 0.0007 | C[N+](C)(C)CCO.[Cl-] [choline chloride] + OCCO | – |
| – | O=C(O)CC(=O)O [propanedioic acid] + C[N+](C)(C)CCO.[Cl-] | refractive index ([1]; x2 = 0.5): 1.4866 ± 0.0008 |
| – | O [water] | refractive index [2]: 1.332 ± 0.0007 |
